Measurements as given in patent publication US5373020A, “Substituted 5-(2-((2-aryl-2-hydroxyethyl)amino)propyl)-1,3-benzodioxoles” (American Cyanamid Company, priority 1993, dated 1994).
Where a name gives a salt, the structure may show the parent alone.

Legend:
[1] = molecular target: T1, β1-receptors (Cavia porcellus, UniProt H0W3H1); assay: Effect on heart rate of isolated right atria (β1-effect); set-up: species or system guinea pig
T1 construct: from tissue; host or cells: guinea pig right atria
Protocol: (§1) β-Adrenergic receptors can be divided into β1, β2 and β3 -subtypes. Activation of β1 -receptors invokes increases in heart rate while activation of β2 -receptors stimulates glycogen breakdown in muscle and thereby prevents glycogen synthesis. Activation of β3 -receptors stimulates lipolysis (the breakdown of adipose tissue triglycerides to glycerol and free fatty acids), and thereby promotes the loss of fat mass.
Selectivity of a compound was determined using the following procedures. The effect on heart rate (β1 -effect) was determined using isolated right atria. […] The right atria were dissected and clamped at one end to a tissue holder and electrode assembly (MRA Corp.) and tied at the other end to a force-displacement transducer (Gould-Statham, Burco). The tissues were maintained at 32° C. in a 50 ml capacity glass chamber (MRA Corp.) preloaded with 0.5 g tension. Heart rate was monitored by a Grass polygragh. […] The increase in heart rate was calculated and considered to be the maximum response for that tissue. The tissues were then washed and allowed to equilibrate for 90 minutes. Cumulative concentration-response curves were then determined for each compound or vehicle. All responses were measured 5 minutes post-exposure.

[2] = molecular target: T2, β2-receptors (Mus musculus, UniProt P18762); assay: Inhibition of insulin-mediated incorporation of 14C-glucose into glycogen in isolated soleus muscle (β2-effect)
T2 construct: Soleus muscle from mice were dissected; from tissue; host or cells: mouse soleus muscle
Protocol: as §1
The β2 -effect of the compounds was determined by their ability to inhibit the insulin-mediated incorporation of ^14 C-glucose into glycogen in isolated muscle. Soleus muscle from mice were dissected, tied at each end, and placed in a clamp to maintain tension. The clamped muscle was added to a vial that contained 2 ml of KHB with 1.5% bovine serum albumin, 0.3 mU/ml insulin, 5 mM (U^-14 C) glucose, and the appropriate additions of compound or vehicle. The vial was gassed with 95% O2 -5% CO2, capped, and the tissue incubated for one hour in a rotating water bath at 37° C. The muscle was then removed, rinsed in ice-cold saline, blotted and weighed. It was then added to 1 ml of 30% KOH containing 5 mg/ml of oyster glycogen, boiled for 10 minutes, and 0.4 ml of 2% Na2 SO4 and 3.2 ml of 100% ethanol added. After standing overnight at 4° C., the glycogen was pelleted by centrifugation, washed once with 66% ethanol, and repelleted. The pellet was dissolved in 1 ml of water and the amount of radioactivity present determined by liquid scintillation.

[3] = tested on: ob/ob mice; assay: Plasma glucose, compound in chow, obese mice; assay type: in vivo, mouse (C57 B1/6J ob/ob)
Protocol: (§2) The compounds of this invention were tested for hypoglycemic and anti-obesity activity according to the following procedure.
(§3) Obese mice (C57 B1/6J (ob/ob)), and/or diabetic mice (C57 B1/KsJ (db/db)) were obtained from Jackson Laboratories, Bar Harbor, Maine. Obese rats (fa/fa) were obtained from Charles River Laboratories, Wilmington, Mass. Obese mice were 8 weeks of age and diabetic mice were 9 weeks of age at the start of the test. Obese rats were 12-14 weeks of age at the start.
(§4) The test compounds were dissolved in methanol, mixed with powdered Purina rodent chow on a weight of compound to weight of chow basis and thoroughly dried.
(§5) Groups of 6 control mice or rats received vehicle (methanol) treated chow.
[…] Thus, a 40 g mouse, fed the test compound at a concentration of 0.02 percent of the diet, would receive a dose of 20 mg/kg/day if it ate 4 g of chow per day.
(§6) The mice or rats were weighed before the first treatment and once at the end of each indicated treatment period.
Blood samples were collected before the first treatment and once at the end of each indicated treatment period by retro-orbital puncture using heparinized capillary tubes.
Plasma was separated by centrifugation in a Beckman microfuge for 5 minutes. Plasma glucose concentrations were determined with the Beckman glucose analyzer which uses a glucose oxidase method.

[4] = tested on: fa/fa rats; assay: Change in weight and food consumption, compound in chow, obese rats; assay type: in vivo, rat (fa/fa)
Protocol: as §2, §3, §4, §5
Groups of 6 test rats were fed 25 g of chow per day for one month. Except for the first day or two, they consumed all their food each day. When these animals are fed ad libitum, they consume 26 g of chow per day and the compounds have no effect on food consumption.
as §6

[5] = molecular target: T3, β3-receptors (Rattus norvegicus, UniProt P26255); assay: Stimulation of adipocyte lipolysis (β3-effect); assay type: cell-based
T3 construct: Rat epididymal fat pads were excised and placed in 0.9% saline; from tissue; host or cells: collagenase-isolated adipocytes from rat epididymal fat pads
Protocol: as §1
The β3 -effect of the compounds was determined by their ability to stimulate adipocyte lipolysis. Rat epididymal fat pads were excised and placed in 0.9% saline. Four grams of tissue were transferred to a flask with 20 ml of aerated Krebs-Henseleit bicarbonate (KHB) buffer containing 3% fatty acid-free bovine serum albumin to which 75 mg of crude bacterial collagenase (Worthington) had been added. The tissue was incubated for about 45 minutes at 37° C. with gentle shaking. The cells were then washed three times with two volumes of KHB buffer, filtered through two layers of gauze, and brought to a final volume of 80 ml with KHB buffer. One ml aliquots of the cell suspension were added to plastic test tubes containing the appropriate additions of vehicle or compound. The cells were gassed for 1 minute with 95% O2 -5% CO2, capped, and incubated at 37° C. with continuous shaking for a total of 30 minutes. The reaction was stopped by adding 0.1 ml of 30% perchloric acid and 0.1 ml of chloroform. After centrifugation, 0.5 ml of supernatant was transferred to another test tube and neutralized with 0.04 ml of 3M K2 CO3 -0.5M triethanolamine. The amount-of glycerol generated from the hydrolysis of endogenous triglycerides was determined in a coupled-enzyme spectrophotometric assay. […] The test tubes were incubated for 40 minutes at 37° C. with constant shaking. […] This value was corrected for the amount of NADH generated in the absence of glycerol by incubating another aliquot of the neutralized extract with the same assay mixture but without glycerokinase.

[6] = dose 0.002 % wt of chow, week 1
[7] = dose 0.002 % wt of chow, week 4

T3 sequence (P26255 whole entry): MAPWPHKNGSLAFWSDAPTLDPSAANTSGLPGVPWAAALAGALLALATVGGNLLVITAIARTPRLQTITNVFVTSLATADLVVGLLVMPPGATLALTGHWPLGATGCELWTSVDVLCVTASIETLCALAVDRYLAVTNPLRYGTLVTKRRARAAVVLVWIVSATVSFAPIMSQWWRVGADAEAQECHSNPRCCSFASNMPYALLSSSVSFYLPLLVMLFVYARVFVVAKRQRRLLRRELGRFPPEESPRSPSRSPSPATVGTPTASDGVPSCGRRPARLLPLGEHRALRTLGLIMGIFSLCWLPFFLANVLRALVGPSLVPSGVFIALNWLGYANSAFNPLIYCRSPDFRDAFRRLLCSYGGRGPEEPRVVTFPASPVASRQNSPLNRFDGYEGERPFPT
T2 sequence (P18762 whole entry): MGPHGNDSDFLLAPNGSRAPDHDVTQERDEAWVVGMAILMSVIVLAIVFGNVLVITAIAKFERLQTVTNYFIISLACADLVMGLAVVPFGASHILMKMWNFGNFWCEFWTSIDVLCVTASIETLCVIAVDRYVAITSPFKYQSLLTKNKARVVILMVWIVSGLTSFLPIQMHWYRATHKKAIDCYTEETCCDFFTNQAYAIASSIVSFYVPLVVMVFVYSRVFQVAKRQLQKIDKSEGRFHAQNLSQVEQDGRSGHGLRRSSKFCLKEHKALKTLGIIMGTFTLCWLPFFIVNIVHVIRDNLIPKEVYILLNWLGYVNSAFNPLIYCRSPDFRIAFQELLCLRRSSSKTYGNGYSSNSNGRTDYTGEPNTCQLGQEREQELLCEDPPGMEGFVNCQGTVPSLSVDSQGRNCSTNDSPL
T1 sequence (H0W3H1 1-470): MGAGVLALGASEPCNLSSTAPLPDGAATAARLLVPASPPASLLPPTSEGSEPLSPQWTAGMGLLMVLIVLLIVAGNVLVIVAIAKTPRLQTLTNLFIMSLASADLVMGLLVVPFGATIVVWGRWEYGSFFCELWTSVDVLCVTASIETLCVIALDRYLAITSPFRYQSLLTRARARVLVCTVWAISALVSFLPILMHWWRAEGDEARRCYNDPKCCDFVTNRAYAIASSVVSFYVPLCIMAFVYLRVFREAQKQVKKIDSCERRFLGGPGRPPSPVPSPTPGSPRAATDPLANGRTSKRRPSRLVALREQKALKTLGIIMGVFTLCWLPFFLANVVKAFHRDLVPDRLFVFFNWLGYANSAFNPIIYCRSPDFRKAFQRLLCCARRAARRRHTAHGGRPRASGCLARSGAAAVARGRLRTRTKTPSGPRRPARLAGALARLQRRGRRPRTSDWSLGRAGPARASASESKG

With COC(=O)C1(C(=O)OC)Oc2ccc(C[C@@H](C)NC[C@H](O)c3cccc(Cl)c3)cc2O1 (stereo in doubt) [CL1, (R* R*)-(±)-5-(2-((2-(3-chlorophenyl)-2-hydroxyethyl)amino)propyl)-1,3-benzodioxole-2,2-dicarboxylic acid, dimethyl ester hydrobromide] the EC50 [1] was 14 nM, the EC50 [2] was 800 nM and the “Plasma Glucose Levels” value ([3]; dose 0.0005 % wt of chow, week 0 (before treatment)) was 270 mg/100 ml. The “Plasma Glucose Levels” value ([3]; dose 0.0005 % wt of chow, week 1) was 164 mg/100 ml, the “Plasma Glucose Levels” value ([3]; dose 0.0005 % wt of chow, week 4) was 179 mg/100 ml and the “Plasma Glucose Levels” value ([3]; dose 0.002 % wt of chow, week 0 (before treatment)) was 276 mg/100 ml. For the same compound, the “Plasma Glucose Levels” value [3, 6] was 150 mg/100 ml, the “Plasma Glucose Levels” value [3, 7] was 156 mg/100 ml and the “Plasma Glucose Levels” value ([3]; dose 0.005 % wt of chow, week 0 (before treatment)) was 237 mg/100 ml. For the same compound, the “Plasma Glucose Levels” value ([3]; dose 0.005 % wt of chow, week 1) was 143 mg/100 ml, the “Plasma Glucose Levels” value ([3]; dose 0.005 % wt of chow, week 4) was 157 mg/100 ml and the “Average Daily Food Consumption” value ([4]; dose 0.0006 % wt of chow) was 25 g/animal. It also gave a Change in weight ([4]; dose 0.0006 % wt of chow, week 1) of 14 grams, a Change in weight ([4]; dose 0.0006 % wt of chow, week 2) of 20 grams and a Change in weight ([4]; dose 0.0006 % wt of chow, week 3) of 27 grams. The Change in weight ([4]; dose 0.0006 % wt of chow, week 4) was 26 grams, the “Average Daily Food Consumption” value ([4]; dose 0.002 % wt of chow) was 25 g/animal and the Change in weight [4, 6] was 1 grams. For the same compound, the Change in weight ([4]; dose 0.002 % wt of chow, week 2) was 2 grams, the Change in weight ([4]; dose 0.002 % wt of chow, week 3) was 3 grams and the Change in weight [4, 7] was 4 grams. For the same compound, the “Average Daily Food Consumption” value ([4]; dose 0.006 % wt of chow) was 25 g/animal, the Change in weight ([4]; dose 0.006 % wt of chow, week 1) was 10 grams and the Change in weight ([4]; dose 0.006 % wt of chow, week 2) was 4 grams. The Change in weight ([4]; dose 0.006 % wt of chow, week 3) was -15 grams, the Change in weight ([4]; dose 0.006 % wt of chow, week 4) was -8 grams and the “times more selective for lipolysis than prior art compound” value ([5]; CL2 vs BRL2, CL1 vs BRL1) was 3 times. The “Relative Selectivity (CL/BRL), Atria” value ([5]; CL2 vs BRL2, CL1 vs BRL1, lipolysis over atria) was 3.1, the “Relative Selectivity (CL/BRL), Gly. Syn.” value ([5]; CL2 vs BRL2, CL1 vs BRL1, lipolysis over glycogen synthesis) was 3.0 and the “Selectivity for Lipolysis over Atria ((EC50 - β1)/(EC50 - β3))” value ([5]; ratio EC50 β1 / EC50 β3) was 47. The “Selectivity for Lipolysis over Gly. Syn. ((EC50 - β2)/(EC50 - β3))” value ([5]; ratio EC50 β2 / EC50 β3) was 27.
